Results reported in patent US5413915A (priority 1991, dated 1995).
Read-outs that look alike come from different tables or passages of the source. Marks after values point to notes of the source that are not given here.

Columns and labels:
rat liver microsomes [1] = type: biochemical; parameters: unit not given here
rat liver microsomes [2] = type: biochemical; parameters: key: Positive: the development of coloration denoted a positive response; Negative: the absence of such coloration denoted a negative response
rat liver microsomes [3] = assay: Color development in detection elements with different leuco dyes (Table 2); type: biochemical; conditions: applied dose 10 μmol (formaldehyde 1 μmol); for New Color Development, NBTZ: unexposed control also Black
Experimental: Solutions containing 0.5 mM of the respective dyes in 0.1 M TRIS buffer, pH=7.4 (except for nitro blue tetrazolium, 5.0 mM in 50% ethanolic TRIS, pH=7.4) were bleached with a few crystals of sodium sulfite or sodium dithionite, then plied in 0.02 mL aliquots as test spots on a clear sheet of transparency film. Spontaneous color development in air was noted (Table 2). Subsequently, a suspension of rat liver microsomes containing 1 mM NADPH and 1 mg/mL gelatin in 0.1 M TRIS-MOPS buffer (pH=7.7) was plied in 0.05 mL aliquots over the dried leuco-dye test spots. After drying, color development condition was noted, and the test spots saved for exposure tests to chemical substances (Table 2). Exposures were carried out by layering 0.01 mL of 0.1-1.0 M solutions of test chemical substances onto the test spots, and changes in color noted over time.

Salmonella typhimurium = conditions: cited from earlier work
[4] = in vivo; cited from earlier work
[5] = in vivo; cited from earlier work; remark: listed apart in the source
[6] = Direct reaction of chemicals with the indicator leuco dye; conditions: without metabolic activation
[7] = cited from earlier work; for E1/2: literature (Kemula and Axt); for Em7: midpoint redox potential
rat liver microsomes [8] = assay: Colorimetric reactions of constituents in bi-layer film (Example 1); type: biochemical; conditions: no microsomes, no NADPH, bottom PRA-reduced (samples 5, 6)
Experimental: In order to establish the color development behavior of various constituents employed in the invention alone and in several combinations, including two selected test chemicals, seven separate bi-layer film spots were prepared using an otherwise similar gelatin binder medium. The bottom layer of these spots contained reduced pararosaniline (PRA) in all instances except sample 7 wherein the oxidized PRA was substituted to illustrate the coloration of that constituent. An ascorbate salt was selected as typical of a benign test chemical, while benzo(a)pyrene was selected as a representative known carcinogen. The color behavior of the various samples was observed and identified in the following Table 3 together with the compositions of the samples tested.

[9] = system: benzo(a)pyrene-induced rat liver microsomes; assay: Vapor exposure of detection elements in continuous flow chamber (Example 10); type: biochemical
Experimental: Detection elements of the present invention were prepared in the following manner. 13 mg PRA dissolved in 9.8 mL 0.1M TRISMOPS buffer (pH=7.4) and 3.2 mL ethanol, was bleached with 71 mg solid sodium sulfite. 0.05 mL Aliquots of the leuco-dye solution were plied to sheets of transparency film, and were air dried for one hour. […] After drying in air, the test spots were cut and mounted in 35 mm tissue culture dishes, then stored at -20° C. until ready for use. Detection elements were visually clear, with a slight flesh tone.
Vapor exposures of detection elements to the carcinogen chloromethyl methyl ether (CH3 --O--CH2 Cl) were carried out at ambient temperature,pressure, and humidity conditions in a continuous flow chamber. Air, metered at a flow rate of 1 L/min, was passed through a flask containing 2.0 mL of a rapidly stirred solution of CH3 --O--CH2 Cl in ethanol. After a glass wool plug to remove entrained liquid mists, the loaded air stream entered a 10 mm diameter tube into which the detection elements were mounted, without pre-moistening, parallel to the air flow. Flow conditions were calculated to be laminar (estimated Reynolds number=150) under these conditions. Exposure was conducted for ten minutes, after which the detection elements were removed and analyzed colorimetrically by taping to the sample beam exit slit of a double-beam spectrophotometer, and scanning the absorption spectrum versus an unexposed detection element affixed to the reference beam. At one exemplary test condition, in which the initial solution concentration of CH3 --O--CH2 Cl was 1.2M, 0.4 mL of the starting solution was recovered at the end of the exposure period. Based on both material balance and Raoult's law calculations, a single value of approximately 5200 ppm was determined for the airborne concentration of CH3 --O--CH2 Cl during the exposure. […] NADPH oxidation, equivalent to 0.4 mM or approximately 20% of the total NADPH, occurred during the 10-minute exposure, but ceased thereafter. By contrast, leuco-dye oxidation continued to intensify for some 2-4 hours, to a final level of about 0.5 mM in the detection element.
In similar experiments to FIG. 7, but in which the airborne concentration of CH3 --O--CH2 Cl was adjusted by lowering its solution concentration, color development is proportional to delivered dose, both by direct liquid administration and vapor exposure. […] For a 10-minute exposure, approximately 0.1% of the total CH3 --O--CH2 Cl in the air stream is absorbed and reacted by detection elements mounted parallel to the air flow.

microsomal protein = assay: In vitro microsomal activation of hydrazine: leuco dye oxidation (Example 9); type: biochemical; conditions: 0.5 mM hydrazine hydrate
Experimental: Test of leuco pararosaniline color formation and NADPH redox states, as a function of time after hydrazine addition, was conducted in vitro, and UV-visible absorbance changes monitored. All systems were aerobic (at least 0.2 mM O2). 0.03 mM Pararosaniline was reduced by addition of 0.1 mM sodium sulfite in 0.1 M 10 tris(hydroxymethyl-)aminomethane buffer (pH=7.5), and 0.3 mM NADPH with approximately 0.5 mg/mL microsomal protein (curves indicated with "+m"). At time=0, hydrazine hydrate (pH=7.5) was added to a final concentration of 0.5 mM. […] Approximately 60% of the leuco dye was oxidized (0.02 mM) during the reaction, and roughly twice that amount of […].

rat liver microsomes [10] = assay: Color development in detection elements with different leuco dyes (Table 2); type: biochemical
[11] = 10-minute vapor exposure, approximately 5200 ppm

In the case of `CC1=CC(=O)c2ccccc2C1=O` [Menadione], the “Detector Response, threshold dose” value (rat liver microsomes [1]) is reported as 0.01, the “Invention Response” value (rat liver microsomes [2]) is reported as “Positive” and the “New Color Development, Methyl Green leuco dye” value (rat liver microsomes [3]) is reported as “None”. The “New Color Development, Methyl Violet leuco dye” value (rat liver microsomes [3]) was “None^a,b”, the “New Color Development, Naphthol Blue-Black leuco dye” value (rat liver microsomes [3]) was “None^b” and the “New Color Development, Nile Blue A leuco dye” value (rat liver microsomes [3]) was “None^b”. The “New Color Development, Safranin O leuco dye” value (rat liver microsomes [3]) was “None”, the “New Color Development, NBTZ” value (rat liver microsomes [3]) was “Black” and the Mutagenicity (Salmonella typhimurium) was “+”. For the same molecule, the “Carcinogenic Status” value [4] was “Possible”, the “Tumorigen Activity” value [4] was “+^e” and the “Teratogen Activity” value [5] was “+”.

For `O=C(O)CI` [ICH2 COOH, iodoacetic acid], the “New Color Development, Methyl Green leuco dye” value (rat liver microsomes [3]) was “Green”, the “New Color Development, Methyl Violet leuco dye” value (rat liver microsomes [3]) was “Purple” and the “New Color Development, Naphthol Blue-Black leuco dye” value (rat liver microsomes [3]) was “None”. For the same molecule, the “New Color Development, Safranin O leuco dye” value (rat liver microsomes [3]) was “None”, the “New Color Development, NBTZ” value (rat liver microsomes [3]) was “Black” and the “Direct reaction with the indicator leuco dye” value (“Direct reaction” below) [6] was “react with the leuco dye to give colored products”. For the same molecule, the “Direct reaction” value ([6]; listed as iodoacetate) was “react directly with the indicator dye”.

For `CN(C)c1ccc(C(=C2C=CC(=[N+](C)C)C=C2)c2ccc([N+](C)(C)C)cc2)cc1.[Cl-].[Cl-]` [Methyl Green, methyl green], the E1/2 [7] is listed as “approximately -0.55 V”.

In the case of `Cc1cc2nc3cc(C)c(N)cc3[n+](-c3ccccc3)c2cc1N.[Cl-]` [Safranin O], the Em7 [7] is listed as -0.28 V.

In the case of `CN(C)c1ccc(C(=C2C=CC(=[N+](C)C)C=C2)c2ccccc2)cc1` [malachite green], the E1/2 [7] is given as -0.55 V.

With `C=O` [Formaldehyde] the “Detector Response, threshold dose” value (rat liver microsomes [1]) was 0.01, the “Invention Response” value (rat liver microsomes [2]) was “Positive” and the “New Color Development, Methyl Violet leuco dye” value (rat liver microsomes [3]) was “Violet”. The “New Color Development, Naphthol Blue-Black leuco dye” value (rat liver microsomes [3]) was “None”, the “New Color Development, Nile Blue A leuco dye” value (rat liver microsomes [3]) was “Blue” and the “New Color Development, Safranin O leuco dye” value (rat liver microsomes [3]) was “None”. The “New Color Development, NBTZ” value (rat liver microsomes [3]) was “Black”, the “Direct reaction” value [6] was “react directly with the indicator dye” and the Mutagenicity (Salmonella typhimurium) was “-”. For the same molecule, the “Mutagenicity, direct-acting mutagen” value (Salmonella typhimurium) was “+”, the “Carcinogenic Status” value [4] was “Probable” and the “Tumorigen Activity” value [4] was “+”. For the same molecule, the “Teratogen Activity” value [5] was “+”.

For `CN(C)c1ccc2nc3ccc(=[N+](C)C)cc-3sc2c1` [Methylene Blue (USP), Methylene Blue], the Em7 [7] is listed as “+0.01 V”, the Mutagenicity (Salmonella typhimurium) is listed as “+” and the “Tumorigen Activity” value [4] is listed as “-”. The “Teratogen Activity” value [5] was “-”.

In the case of `O=C1O[C@H]([C@@H](O)CO)C(O)=C1O` [free ascorbic acid, ascorbic acid], the “COLOR REACTION” value (rat liver microsomes [8]) is reported as “color reaction occurs”.

For Nile Blue A, the Em7 [7] is listed as -0.12 V.

In the case of `O=S([O-])S(=O)[O-].[Na+].[Na+]` [sodium dithionite], the Em7 [7] is given as under -0.5 V.

For `[Cd+2]` [Cd(II)], the “Dose-response shift, BNF-induced detection elements versus uninduced controls” value (“Dose-response shift” for short) (cytochrome P450IA1; compared with the shift seen for hydrazine) is given as “less significantly”, the Mutagenicity (Salmonella typhimurium) is given as “+” and the “Tumorigen Activity, assignment based on IARC reports” value [4] is given as “+”. The “Teratogen Activity” value [5] was “+”.

For `ClC=C(Cl)Cl` [Trichloroethylene], the “Detector Response, threshold dose” value (rat liver microsomes [1]) is given as 150, the “Dose-response shift” value (cytochrome P450IA1) is given as “less significantly” and the Mutagenicity (Salmonella typhimurium) is given as “+”. The “Tumorigen Activity” value [4] was “+” and the “Teratogen Activity” value [5] was “+”.

In the case of `COCCl` [Chloromethyl methyl ether], the “Detector Response, threshold dose” value (rat liver microsomes [1]) is reported as 0.1, the “NADPH oxidation in detection element” value [9, 11] is reported as 0.4 mM and the “NADPH oxidation, share of the total NADPH” value [9, 11] is reported as “approximately 20%”. For the same molecule, the “Time over which leuco-dye oxidation continued to intensify” value ([9]; after 10-minute exposure) was 2 to 4 h, the “Leuco-dye oxidation, final level in the detection element” value ([9]; after 10-minute exposure, approximately 5200 ppm) was “about 0.5 mM” and the Mutagenicity (Salmonella typhimurium) was “+”. For the same molecule, the “Tumorigen Activity” value [4] was “+” and the “Teratogen Activity” value [5] was “+”.

For methyl violet, the E1/2 [7] is listed as “approximately -0.75 V”.

In the case of `NN` [Hydrazine], the “Detector Response, threshold dose” value (rat liver microsomes [1]) is reported as 0.1-20, the “New Color Development, NBTZ” value (rat liver microsomes [3]) is reported as “Black” and the “Leuco dye oxidized during the reaction” value (microsomal protein) is reported as 0.02 mM. The “Time to asymptote of leuco-dye oxidation and NADPH reduction” value (microsomal protein) was 2.0 to 2.5 h, the “Leuco dye oxidized during the reaction” value (microsomal protein; 0.03 mM PRA, 0.3 mM NADPH, microsomes) was “Approximately 60%” and the “Gain of sensitivity, 50%:50% BaP-induced and uninduced microsomes versus uninduced” value (cytochrome P450IA1) was “approximately 10 fold”. The “Loss of sensitivity, BNF-induced versus uninduced microsomes” value (cytochrome P450IA1) was 20-50 fold, the “Color of detection elements with leuco methylene blue in combination with pararosaniline” value (rat liver microsomes [10]; exposure to hydrazine) was “magenta color” and the “Color of detection elements using leuco malachite green” value (rat liver microsomes [10]; exposure to hydrazine solutions, separate tests) was “visually detectable green color”. For the same molecule, the Em7 [7] was -0.73 V, the Mutagenicity (Salmonella typhimurium) was “+” and the “Tumorigen Activity” value [4] was “+”. The “Teratogen Activity” value [5] was “+”.

For `OO` [H2 O2], the “Detector Response, threshold dose” value (rat liver microsomes [1]) is listed as 1-2, the “Direct reaction” value [6] is listed as “react directly with the indicator dye” and the Mutagenicity (Salmonella typhimurium) is listed as “+”. For the same molecule, the “Tumorigen Activity, assignment based on IARC reports” value [4] was “+” and the “Teratogen Activity” value [5] was “-”.

For `Oc1ccccc1` [Phenol], the “Detector Response, threshold dose” value (rat liver microsomes [1]) was 0.02, the “Invention Response” value (rat liver microsomes [2]) was “Positive” and the “Dose-response shift” value (cytochrome P450IA1) was “less significantly”. For the same molecule, the “Carcinogenic Status” value [4] was “Possible”, the “Tumorigen Activity” value [4] was “-” and the “Teratogen Activity” value [5] was “-”.

In the case of dichromate, the “Direct reaction” value [6] is reported as “react directly with the indicator dye”.
